# The kinase profiling compilation of Christmann-Franck et al. (2016)
# Assays:
# [1] = tested on: AKT1 (human), P31749 [S473D]
# [2] = tested on: AKT2 (human), P31751 [S474D]
# [3] = molecular target: AURKA (human) (UniProt O14965)
# [4] = molecular target: BRSK1 (human) (UniProt Q8TDC3)
# [5] = molecular target: HIPK1 (human) (UniProt Q86Z02)
# [6] = molecular target: HIPK3 (human) (UniProt Q9H422)
# [7] = molecular target: IRAK4 (human) (UniProt Q9NWZ3)
# [8] = molecular target: MAP3K11 (human) (UniProt Q16584)
# [9] = molecular target: MAP3K9 (human) (UniProt P80192)
# [10] = molecular target: MAPK10 (human) (UniProt P53779)
# [11] = molecular target: MARK2 (human) (UniProt Q7KZI7)
# [12] = molecular target: MARK4 (human) (UniProt Q96L34)
# [13] = molecular target: MINK1 (human) (UniProt Q8N4C8)
# [14] = molecular target: MYLK (human) (UniProt Q15746)
# MYLK (human), sequence (Q15746 whole entry, looked up): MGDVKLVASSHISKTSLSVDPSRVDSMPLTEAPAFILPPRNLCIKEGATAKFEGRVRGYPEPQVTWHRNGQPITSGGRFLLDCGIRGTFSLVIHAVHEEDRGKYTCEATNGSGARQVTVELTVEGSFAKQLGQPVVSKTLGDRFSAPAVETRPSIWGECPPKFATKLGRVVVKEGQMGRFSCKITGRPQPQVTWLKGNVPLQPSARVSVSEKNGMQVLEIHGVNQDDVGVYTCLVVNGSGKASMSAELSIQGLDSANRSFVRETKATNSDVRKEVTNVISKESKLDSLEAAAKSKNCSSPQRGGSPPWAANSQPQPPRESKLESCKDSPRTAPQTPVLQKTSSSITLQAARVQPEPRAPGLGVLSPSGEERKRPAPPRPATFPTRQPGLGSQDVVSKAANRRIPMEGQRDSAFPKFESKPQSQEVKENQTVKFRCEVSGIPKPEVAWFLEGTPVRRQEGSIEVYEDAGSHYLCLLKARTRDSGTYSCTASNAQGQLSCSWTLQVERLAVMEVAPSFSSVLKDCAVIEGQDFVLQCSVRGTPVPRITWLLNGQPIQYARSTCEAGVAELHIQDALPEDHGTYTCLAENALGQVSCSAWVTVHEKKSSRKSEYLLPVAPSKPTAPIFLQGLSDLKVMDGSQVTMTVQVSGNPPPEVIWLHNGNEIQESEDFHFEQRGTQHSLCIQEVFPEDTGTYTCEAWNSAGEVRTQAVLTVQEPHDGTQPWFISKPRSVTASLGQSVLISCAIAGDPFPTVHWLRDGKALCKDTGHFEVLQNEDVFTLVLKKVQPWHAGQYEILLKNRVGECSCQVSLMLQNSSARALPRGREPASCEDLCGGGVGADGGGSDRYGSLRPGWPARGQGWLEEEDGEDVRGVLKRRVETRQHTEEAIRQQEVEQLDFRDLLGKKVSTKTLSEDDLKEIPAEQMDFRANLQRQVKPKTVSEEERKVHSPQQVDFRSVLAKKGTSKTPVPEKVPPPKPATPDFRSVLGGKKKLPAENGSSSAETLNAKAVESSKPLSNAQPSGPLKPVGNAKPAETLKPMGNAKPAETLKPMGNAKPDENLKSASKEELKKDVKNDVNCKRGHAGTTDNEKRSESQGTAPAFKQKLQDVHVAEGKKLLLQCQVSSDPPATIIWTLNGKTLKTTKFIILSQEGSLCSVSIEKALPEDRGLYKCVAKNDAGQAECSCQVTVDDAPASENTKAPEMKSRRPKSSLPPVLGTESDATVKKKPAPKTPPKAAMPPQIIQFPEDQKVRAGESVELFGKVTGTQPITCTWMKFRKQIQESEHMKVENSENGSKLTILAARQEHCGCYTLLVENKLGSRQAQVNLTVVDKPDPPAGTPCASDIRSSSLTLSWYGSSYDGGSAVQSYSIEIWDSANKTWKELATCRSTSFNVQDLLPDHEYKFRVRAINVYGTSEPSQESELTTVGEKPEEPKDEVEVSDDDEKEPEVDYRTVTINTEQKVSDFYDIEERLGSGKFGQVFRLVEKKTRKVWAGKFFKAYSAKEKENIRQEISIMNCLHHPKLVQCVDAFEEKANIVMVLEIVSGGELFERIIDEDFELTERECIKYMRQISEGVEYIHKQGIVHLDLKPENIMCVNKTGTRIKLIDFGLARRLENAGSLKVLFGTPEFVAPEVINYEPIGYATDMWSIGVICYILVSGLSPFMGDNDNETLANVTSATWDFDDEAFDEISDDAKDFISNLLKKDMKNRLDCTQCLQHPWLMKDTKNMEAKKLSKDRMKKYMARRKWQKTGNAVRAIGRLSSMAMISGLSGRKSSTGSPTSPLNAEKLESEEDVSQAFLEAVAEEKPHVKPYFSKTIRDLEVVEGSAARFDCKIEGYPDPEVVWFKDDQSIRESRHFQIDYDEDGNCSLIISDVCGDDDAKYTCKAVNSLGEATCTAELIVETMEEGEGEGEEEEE
# [15] = molecular target: NUAK1 (human) (UniProt O60285)
# [16] = tested on: PAK2 (human), Q13177 [T402E]
# [17] = molecular target: RIPK2 (human) (UniProt O43353)
# [18] = molecular target: STK11 (human) (UniProt Q15831)
# [19] = molecular target: TTK (human) (UniProt P33981)
# TTK (human), sequence (P33981 whole entry, looked up): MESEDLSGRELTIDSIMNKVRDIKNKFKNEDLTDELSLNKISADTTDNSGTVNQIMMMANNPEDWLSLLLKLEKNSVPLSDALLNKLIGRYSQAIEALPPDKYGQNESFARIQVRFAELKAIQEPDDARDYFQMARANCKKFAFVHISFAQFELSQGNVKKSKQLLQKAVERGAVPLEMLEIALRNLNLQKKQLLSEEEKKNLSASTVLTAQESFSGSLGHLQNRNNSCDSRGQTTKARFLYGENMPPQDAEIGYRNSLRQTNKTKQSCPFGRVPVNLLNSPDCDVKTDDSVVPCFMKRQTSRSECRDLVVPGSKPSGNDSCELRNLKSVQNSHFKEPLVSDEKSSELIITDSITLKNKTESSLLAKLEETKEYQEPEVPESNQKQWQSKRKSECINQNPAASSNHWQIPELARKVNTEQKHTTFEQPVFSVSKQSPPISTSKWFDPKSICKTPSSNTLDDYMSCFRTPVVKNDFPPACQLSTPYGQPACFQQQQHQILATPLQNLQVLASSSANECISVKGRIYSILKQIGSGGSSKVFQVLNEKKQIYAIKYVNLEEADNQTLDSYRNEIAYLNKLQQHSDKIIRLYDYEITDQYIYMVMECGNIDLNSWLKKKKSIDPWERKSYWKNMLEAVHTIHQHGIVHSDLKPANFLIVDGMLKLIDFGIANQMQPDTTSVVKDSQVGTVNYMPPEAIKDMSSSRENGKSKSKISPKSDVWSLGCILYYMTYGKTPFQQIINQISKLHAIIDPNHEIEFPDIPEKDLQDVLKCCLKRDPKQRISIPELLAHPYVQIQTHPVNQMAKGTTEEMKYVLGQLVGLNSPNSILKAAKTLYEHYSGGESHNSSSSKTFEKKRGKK
# [20] = molecular target: ACVR2B (human) (UniProt Q13705); experiment: KINOMEscan competition binding; conditions: compound 10.0 µM
# [21] = molecular target: ACVRL1 (human) (UniProt P37023); experiment: KINOMEscan competition binding; conditions: compound 10.0 µM
# [22] = molecular target: CAMK4 (human) (UniProt Q16566); experiment: KINOMEscan competition binding; conditions: compound 10.0 µM
# [23] = molecular target: CDC42BPB (human) (UniProt Q9Y5S2); experiment: KINOMEscan competition binding; conditions: compound 10.0 µM
# [24] = molecular target: CDKL2 (human) (UniProt Q92772); experiment: KINOMEscan competition binding; conditions: compound 10.0 µM
# [25] = molecular target: DCLK1 (human) (UniProt O15075); experiment: KINOMEscan competition binding; conditions: compound 10.0 µM
# [26] = tested on: FLT3 (human), P36888 [ITD]; experiment: KINOMEscan competition binding; conditions: compound 10.0 µM
# [27] = molecular target: LTK (human) (UniProt P29376); experiment: KINOMEscan competition binding; conditions: compound 10.0 µM
# [28] = molecular target: MAP2K3 (human) (UniProt P46734); experiment: KINOMEscan competition binding; conditions: compound 10.0 µM
# [29] = molecular target: MAP4K1 (human) (UniProt Q92918); experiment: KINOMEscan competition binding; conditions: compound 10.0 µM
# [30] = molecular target: OXSR1 (human) (UniProt O95747); experiment: KINOMEscan competition binding; conditions: compound 10.0 µM
# [31] = tested on: PIK3CA (human), P42336 [C420R]; experiment: KINOMEscan competition binding; conditions: compound 10.0 µM
# PIK3CA (human), P42336 [C420R], sequence (P42336 whole entry C420R, looked up): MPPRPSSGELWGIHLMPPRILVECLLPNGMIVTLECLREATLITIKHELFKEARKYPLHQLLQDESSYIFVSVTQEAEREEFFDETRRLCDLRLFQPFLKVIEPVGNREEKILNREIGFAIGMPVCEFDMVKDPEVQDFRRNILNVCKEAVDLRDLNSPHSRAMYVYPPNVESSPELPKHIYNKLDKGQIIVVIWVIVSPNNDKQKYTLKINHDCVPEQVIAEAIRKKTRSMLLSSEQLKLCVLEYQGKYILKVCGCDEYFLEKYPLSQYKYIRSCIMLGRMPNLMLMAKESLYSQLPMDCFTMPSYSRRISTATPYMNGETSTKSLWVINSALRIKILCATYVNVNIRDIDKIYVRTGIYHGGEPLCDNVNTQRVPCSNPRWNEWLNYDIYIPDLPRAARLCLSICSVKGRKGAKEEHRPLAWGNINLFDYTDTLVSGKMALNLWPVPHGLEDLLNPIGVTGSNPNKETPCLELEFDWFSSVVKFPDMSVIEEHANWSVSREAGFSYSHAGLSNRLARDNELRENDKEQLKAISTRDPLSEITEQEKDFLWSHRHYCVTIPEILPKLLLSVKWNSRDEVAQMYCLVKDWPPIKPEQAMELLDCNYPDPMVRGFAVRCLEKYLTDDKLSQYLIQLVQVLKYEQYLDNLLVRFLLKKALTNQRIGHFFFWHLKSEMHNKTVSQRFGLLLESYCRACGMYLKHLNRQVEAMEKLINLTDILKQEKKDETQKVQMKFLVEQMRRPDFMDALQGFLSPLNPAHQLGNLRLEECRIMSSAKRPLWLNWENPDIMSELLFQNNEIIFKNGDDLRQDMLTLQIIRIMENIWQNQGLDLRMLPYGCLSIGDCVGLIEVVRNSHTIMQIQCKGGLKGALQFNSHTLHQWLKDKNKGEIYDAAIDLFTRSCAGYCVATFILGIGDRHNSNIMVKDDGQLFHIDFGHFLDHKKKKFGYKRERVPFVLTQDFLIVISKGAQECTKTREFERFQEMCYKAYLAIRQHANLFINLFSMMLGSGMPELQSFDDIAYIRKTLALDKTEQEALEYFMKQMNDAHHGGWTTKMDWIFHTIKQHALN
# [32] = molecular target: PRKG1 (human) (UniProt Q13976); experiment: KINOMEscan competition binding; conditions: compound 10.0 µM
# [33] = molecular target: RAF1 (human) (UniProt P04049); experiment: KINOMEscan competition binding; conditions: compound 10.0 µM
# [34] = tested on: RET (human), P07949 [V804L]; experiment: KINOMEscan competition binding; conditions: compound 10.0 µM
# [35] = molecular target: RIPK2 (human) (UniProt O43353); experiment: KINOMEscan competition binding; conditions: compound 10.0 µM
# [36] = molecular target: TAOK1 (human) (UniProt Q7L7X3); experiment: KINOMEscan competition binding; conditions: compound 10.0 µM
# [37] = molecular target: INSR (human) (UniProt P06213)
# BRSK1 (human), sequence (Q8TDC3 whole entry, looked up): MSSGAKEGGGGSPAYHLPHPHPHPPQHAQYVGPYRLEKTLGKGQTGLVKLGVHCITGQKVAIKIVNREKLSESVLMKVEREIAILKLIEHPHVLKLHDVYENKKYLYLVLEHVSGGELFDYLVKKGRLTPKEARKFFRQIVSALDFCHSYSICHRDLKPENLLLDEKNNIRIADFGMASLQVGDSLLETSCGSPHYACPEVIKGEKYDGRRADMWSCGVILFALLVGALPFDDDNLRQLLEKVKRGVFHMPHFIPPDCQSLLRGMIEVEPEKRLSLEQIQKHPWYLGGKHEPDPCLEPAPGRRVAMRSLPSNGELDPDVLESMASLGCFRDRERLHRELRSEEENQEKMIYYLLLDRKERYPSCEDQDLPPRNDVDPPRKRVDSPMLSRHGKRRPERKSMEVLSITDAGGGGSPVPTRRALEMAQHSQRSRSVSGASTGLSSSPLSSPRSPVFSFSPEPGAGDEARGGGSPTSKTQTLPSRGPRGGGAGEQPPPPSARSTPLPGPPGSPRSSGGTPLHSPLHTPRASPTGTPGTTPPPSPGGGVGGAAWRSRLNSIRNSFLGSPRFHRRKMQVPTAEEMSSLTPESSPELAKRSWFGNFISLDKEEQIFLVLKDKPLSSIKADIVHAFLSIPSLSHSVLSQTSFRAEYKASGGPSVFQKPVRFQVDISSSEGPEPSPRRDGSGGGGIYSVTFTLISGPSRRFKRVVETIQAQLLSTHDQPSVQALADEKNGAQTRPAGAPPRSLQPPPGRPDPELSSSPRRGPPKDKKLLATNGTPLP
# IRAK4 (human), sequence (Q9NWZ3 whole entry, looked up): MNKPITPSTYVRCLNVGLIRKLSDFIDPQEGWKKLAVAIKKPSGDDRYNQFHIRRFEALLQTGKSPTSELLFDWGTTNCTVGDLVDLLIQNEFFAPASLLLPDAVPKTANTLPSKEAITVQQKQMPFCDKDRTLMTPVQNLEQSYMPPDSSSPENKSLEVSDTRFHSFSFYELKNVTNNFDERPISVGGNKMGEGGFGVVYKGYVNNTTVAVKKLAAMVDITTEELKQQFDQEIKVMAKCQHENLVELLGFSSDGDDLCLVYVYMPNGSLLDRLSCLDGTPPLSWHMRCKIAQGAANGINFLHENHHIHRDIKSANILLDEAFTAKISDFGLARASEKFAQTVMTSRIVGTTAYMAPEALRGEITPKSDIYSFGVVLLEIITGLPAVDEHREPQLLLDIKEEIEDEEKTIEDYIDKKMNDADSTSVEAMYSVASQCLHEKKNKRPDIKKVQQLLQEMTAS
smiles,measurement,setting,value
CCC(=O)N1CCN(c2ccc(-n3c(=O)ccc4cnc5ccc(-c6cnc7ccccc7c6)cc5c43)cc2C(F)(F)F)CC1,per cent of control,[1]; compound 1.0 µM,94%
same,per cent of control,[1]; compound 10.0 µM,71%
same,per cent of control,[2]; compound 1.0 µM,95%
same,per cent of control,[2]; compound 10.0 µM,84%
same,per cent of control,[3]; compound 1.0 µM,88%
same,per cent of control,[3]; compound 10.0 µM,68%
same,per cent of control,[4]; compound 1.0 µM,99%
same,per cent of control,[4]; compound 10.0 µM,94%
same,per cent of control,[5]; compound 1.0 µM,76%
same,per cent of control,[5]; compound 10.0 µM,85%
same,per cent of control,[6]; compound 1.0 µM,107%
same,per cent of control,[6]; compound 10.0 µM,91%
same,per cent of control,[7]; compound 1.0 µM,112%
same,per cent of control,[7]; compound 10.0 µM,76%
same,per cent of control,[8]; compound 1.0 µM,99%
same,per cent of control,[8]; compound 10.0 µM,86%
same,per cent of control,[9]; compound 1.0 µM,92%
same,per cent of control,[9]; compound 10.0 µM,48%
same,per cent of control,[10]; compound 1.0 µM,99%
same,per cent of control,[10]; compound 10.0 µM,79%
same,per cent of control,[11]; compound 1.0 µM,117%
same,per cent of control,[11]; compound 10.0 µM,102%
same,per cent of control,[12]; compound 1.0 µM,94%
same,per cent of control,[12]; compound 10.0 µM,97%
same,per cent of control,[13]; compound 1.0 µM,69%
same,per cent of control,[13]; compound 10.0 µM,14%
same,per cent of control,[14]; compound 1.0 µM,94%
same,per cent of control,[14]; compound 10.0 µM,83%
same,per cent of control,[15]; compound 1.0 µM,101%
same,per cent of control,[15]; compound 10.0 µM,79%
same,per cent of control,[16]; compound 1.0 µM,93%
same,per cent of control,[16]; compound 10.0 µM,82%
same,per cent of control,[17]; compound 10.0 µM,64%
same,per cent of control,[18]; compound 1.0 µM,96%
same,per cent of control,[18]; compound 10.0 µM,80%
same,per cent of control,[19]; compound 1.0 µM,79%
same,per cent of control,[19]; compound 10.0 µM,71%
same,"kinase still bound, per cent of control",[20],42%
same,"kinase still bound, per cent of control",[21],83%
same,"kinase still bound, per cent of control",[22],90%
same,"kinase still bound, per cent of control",[23],3.4%
same,per cent of control,[24],58%
same,"kinase still bound, per cent of control",[25],100%
same,"kinase still bound, per cent of control",[26],29%
same,"kinase still bound, per cent of control",[27],77%
same,"kinase still bound, per cent of control",[28],80%
same,"kinase still bound, per cent of control",[29],30%
same,"kinase still bound, per cent of control",[30],100%
same,"kinase still bound, per cent of control",[31],0.7%
same,"kinase still bound, per cent of control",[32],86%
same,"kinase still bound, per cent of control",[33],48%
same,"kinase still bound, per cent of control",[34],66%
same,"kinase still bound, per cent of control",[35],44%
same,"kinase still bound, per cent of control",[36],58%
CC(C)n1nc(-c2cc3cc(O)ccc3[nH]2)c2c(N)ncnc21,per cent of control,[37]; compound 1.0 µM,69%
same,per cent of control,[37]; compound 10.0 µM,58%
same,"kinase still bound, per cent of control",[20],2%
same,"kinase still bound, per cent of control",[21],6.7%
same,"kinase still bound, per cent of control",[22],100%
same,"kinase still bound, per cent of control",[23],71%
same,per cent of control,[24],75%
same,"kinase still bound, per cent of control",[25],70%
same,"kinase still bound, per cent of control",[27],16%
same,"kinase still bound, per cent of control",[28],1.7%
same,"kinase still bound, per cent of control",[29],33%
same,"kinase still bound, per cent of control",[30],80%
same,"kinase still bound, per cent of control",[32],100%
same,"kinase still bound, per cent of control",[33],41%
same,"kinase still bound, per cent of control",[34],12%
same,"kinase still bound, per cent of control",[35],0.8%
same,"kinase still bound, per cent of control",[36],0.2%
COc1ccc(-c2ccc3c(N4CCOCC4)nc(N4C[C@@H](C)O[C@@H](C)C4)nc3n2)cc1CO,per cent of control,[37]; compound 1.0 µM,81%
same,per cent of control,[37]; compound 10.0 µM,67%
same,"kinase still bound, per cent of control",[20],100%
same,"kinase still bound, per cent of control",[21],100%
same,"kinase still bound, per cent of control",[22],100%
same,"kinase still bound, per cent of control",[23],81%
same,per cent of control,[24],95%
same,"kinase still bound, per cent of control",[25],100%
same,"kinase still bound, per cent of control",[26],100%
same,"kinase still bound, per cent of control",[27],96%
same,"kinase still bound, per cent of control",[28],94%
same,"kinase still bound, per cent of control",[29],88%
same,"kinase still bound, per cent of control",[30],72%
same,"kinase still bound, per cent of control",[31],2.3%
same,"kinase still bound, per cent of control",[32],91%
same,"kinase still bound, per cent of control",[33],100%
same,"kinase still bound, per cent of control",[34],100%
same,"kinase still bound, per cent of control",[35],100%
same,"kinase still bound, per cent of control",[36],83%
COC(=O)Nc1ccc(-c2nc(N3CCOCC3)c3cnn(C4CCN(C(=O)OC)CC4)c3n2)cc1,per cent of control,[1]; compound 1.0 µM,89%
same,per cent of control,[1]; compound 10.0 µM,87%
same,per cent of control,[2]; compound 1.0 µM,102%
same,per cent of control,[2]; compound 10.0 µM,89%
same,per cent of control,[3]; compound 1.0 µM,90%
same,per cent of control,[3]; compound 10.0 µM,63%
same,per cent of control,[4]; compound 10.0 µM,94%
same,per cent of control,[5]; compound 1.0 µM,85%
same,per cent of control,[5]; compound 10.0 µM,89%
same,per cent of control,[6]; compound 1.0 µM,112%
same,per cent of control,[6]; compound 10.0 µM,85%
same,per cent of control,[7]; compound 1.0 µM,107%
same,per cent of control,[7]; compound 10.0 µM,114%
same,per cent of control,[8]; compound 1.0 µM,92%
same,per cent of control,[8]; compound 10.0 µM,106%
same,per cent of control,[9]; compound 1.0 µM,95%
same,per cent of control,[9]; compound 10.0 µM,109%
same,per cent of control,[10]; compound 1.0 µM,94%
same,per cent of control,[10]; compound 10.0 µM,106%
same,per cent of control,[11]; compound 1.0 µM,96%
same,per cent of control,[11]; compound 10.0 µM,118%
same,per cent of control,[12]; compound 1.0 µM,91%
same,per cent of control,[12]; compound 10.0 µM,109%
same,per cent of control,[13]; compound 1.0 µM,100%
same,per cent of control,[13]; compound 10.0 µM,100%
same,per cent of control,[14]; compound 1.0 µM,97%
same,per cent of control,[14]; compound 10.0 µM,87%
same,per cent of control,[15]; compound 1.0 µM,94%
same,per cent of control,[15]; compound 10.0 µM,82%
same,per cent of control,[16]; compound 1.0 µM,92%
same,per cent of control,[16]; compound 10.0 µM,91%
same,per cent of control,[17]; compound 1.0 µM,94%
same,per cent of control,[17]; compound 10.0 µM,72%
same,per cent of control,[18]; compound 1.0 µM,102%
same,per cent of control,[18]; compound 10.0 µM,112%
same,per cent of control,[19]; compound 1.0 µM,91%
same,per cent of control,[19]; compound 10.0 µM,93%
same,"kinase still bound, per cent of control",[20],100%
same,"kinase still bound, per cent of control",[21],100%
same,"kinase still bound, per cent of control",[22],100%
same,"kinase still bound, per cent of control",[23],96%
same,per cent of control,[24],94%
same,"kinase still bound, per cent of control",[25],93%
same,"kinase still bound, per cent of control",[26],100%
same,"kinase still bound, per cent of control",[27],87%
same,"kinase still bound, per cent of control",[28],95%
same,"kinase still bound, per cent of control",[29],100%
same,"kinase still bound, per cent of control",[30],90%
same,"kinase still bound, per cent of control",[31],3%
same,"kinase still bound, per cent of control",[32],100%
same,"kinase still bound, per cent of control",[33],91%
same,"kinase still bound, per cent of control",[34],84%
same,"kinase still bound, per cent of control",[35],65%
same,"kinase still bound, per cent of control",[36],83%
